Data on three compounds can be found in US12115180B2 (Board of Supervisors of Louisiana State University and …, priority 2020, dated 2024).

One data set relates to p53. The experiment in a line: Western blot of p53 expression in NRCs. In kind it is cell-based, Sprague Dawley rat. The note with it: 10 μM, 24 h. The method, then: (§1) Cell Lines and Maintenance. Primary Neonatal Rat Cardiomyocyte Culture. The inventors isolated neonatal rat cardiomyocytes (NRCs) from the ventricles of 1-2 day old Sprague Dawley rat pups as described previously. Briefly, ventricular tissues excised from rat pups were digested with collagenase at 4° C. overnight with subsequent digestion in trypsin. Next, cells were preplated to remove cardiac fibroblasts, followed by plating of isolated cardiomyocytes at 1.5×10^6 cells per 10 cm^2 plate in αMEM containing 10% fetal bovine serum (FBS) (Gibco) and 1% antibiotic-antimycotic (Gibco) media. After 24 h, NRCs were maintained in Dulbecco's modified Eagle's medium (DMEM) (Gibco) containing 2% FBS and 1% antibiotic-antimycotic and subjected to different treatments, as described previously. All cell culture treatments were repeated in three independent experiments.
Protein Extraction and Western Blot Analyses. NRCs were washed with PBS and lysed with CelLytic M (Sigma-Aldrich) lysis buffer containing a complete protease inhibitor cocktail (Roche®). […] The protein concentration of the soluble cardiomyocyte lysates was measured using the modified Bradford reagent relative to a BSA standard curve (Bio-Rad®) in a 1 mL cuvette on a DS-11 FX+ spectrophotometer (DeNovix®, Wilmington, DE). […]
For orientation: In western blotting, separated proteins are transferred to a membrane and probed.

Data set [1] concerns neonatal rat cardiomyocytes (NRCs). The experiment in a line: Lactate dehydrogenase release assay for cardiac myocytes. As to conditions: 5 μM, 10 μM, and 25 μM; 24 h. The data set is classed as cell-based, Sprague Dawley rat. As for the experimental part: as §1
Biochemical Assays. Lactate Dehydrogenase Release Assay for Cardiac Myocytes. Following treatments, culture media were collected and cleared by centrifugation at 5000 g for 10 min. Lactate dehydrogenase (LDH) release into culture media was measured using a cytotoxicity detection kit (Roche®) as per the manufacturer's instructions. Color development was measured using a microplate absorbance reader at an absorbance of 492 nm (Bio-Rad®).

Data set [2] can be described thus: pKa and protonation of the side-chain amines. In kind it is physicochemical.

A word on the pKa: it is the pH at which an ionisable group is half protonated. Read a low pKa as a stronger acid or weaker base.

Consider `COc1cccc2c1C(=O)c1c(O)c3c(c(O)c1C2=O)C[C@@](O)(C(=O)CO)C[C@@H]3O[C@H]1C[C@H](N)[C@H](O)[C@H](C)O1` [con-DOX, doxorubicin], for which, in the data set on p53, the p53 protein expression result is “increased p53 expression”. In addition, the “LDH release (cell death)” value in data set [1] was “dose-dependent increase in cell death”.

Consider `NCCN1CCCC1` [PY, 2-pyrrolidine-1-yl-ethyl-amine], for which the pKa in data set [2] stood at 5.4. Moreover, the figures for the fraction protonated in data set [2] (pH 4.5) and in data set [2] (pH 5.5) were 89% and 44%, respectively.

As to `CCCCN(CCN)CCCC`, in data set [2], the pKa was found to be 4. Also, the fraction protonated in data set [2] (pH 4.5) is reported as 24%; in data set [2] (pH 5.5) it was 3%.
